Here are results for seven molecules from patent US9951038B2, “Quinazolin-4(3H)-one-type piperidine compounds and uses thereof” (Purdue Pharma L.P., priority 2012, dated 2018).

Assay [1] concerns the target T1, CYP1A2 (Homo sapiens, UniProt P05177).
T1 sequence (P05177 1-516): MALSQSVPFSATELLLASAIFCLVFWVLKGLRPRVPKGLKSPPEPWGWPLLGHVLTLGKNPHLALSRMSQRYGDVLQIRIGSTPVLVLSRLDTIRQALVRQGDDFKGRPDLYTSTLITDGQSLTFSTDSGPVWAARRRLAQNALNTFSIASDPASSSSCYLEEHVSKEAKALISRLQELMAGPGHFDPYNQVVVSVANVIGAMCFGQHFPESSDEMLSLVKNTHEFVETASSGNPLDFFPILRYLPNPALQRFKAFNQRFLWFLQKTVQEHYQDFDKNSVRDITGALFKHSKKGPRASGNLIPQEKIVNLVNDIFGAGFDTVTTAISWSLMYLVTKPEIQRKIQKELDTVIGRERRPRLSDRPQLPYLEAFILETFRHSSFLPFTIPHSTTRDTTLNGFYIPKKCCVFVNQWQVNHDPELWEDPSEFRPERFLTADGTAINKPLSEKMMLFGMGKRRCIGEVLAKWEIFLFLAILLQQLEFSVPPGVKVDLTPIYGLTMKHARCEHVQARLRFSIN
Briefly: Cytochrome P450 inhibition, pooled human hepatic microsome, CYP1A2. It is filed as in vitro ADME.

For assay [2], the target named is T2, CYP2C9 (Homo sapiens, UniProt P11712).
T2 construct: using commercially available pooled human hepatic microsome; from tissue; host or cells: pooled human hepatic microsomes
T2 sequence (P11712 whole entry): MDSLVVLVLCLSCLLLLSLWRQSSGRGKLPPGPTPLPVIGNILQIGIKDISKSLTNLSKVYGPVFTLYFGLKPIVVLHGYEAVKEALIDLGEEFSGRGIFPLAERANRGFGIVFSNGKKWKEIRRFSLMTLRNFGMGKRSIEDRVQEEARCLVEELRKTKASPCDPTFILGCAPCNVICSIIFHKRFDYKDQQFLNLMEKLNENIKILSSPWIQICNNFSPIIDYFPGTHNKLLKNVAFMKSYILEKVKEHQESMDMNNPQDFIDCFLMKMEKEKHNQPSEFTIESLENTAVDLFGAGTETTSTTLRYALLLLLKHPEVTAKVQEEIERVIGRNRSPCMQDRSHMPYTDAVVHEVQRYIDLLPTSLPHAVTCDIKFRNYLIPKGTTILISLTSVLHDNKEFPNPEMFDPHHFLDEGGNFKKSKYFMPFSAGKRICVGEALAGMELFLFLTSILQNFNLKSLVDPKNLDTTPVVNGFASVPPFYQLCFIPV
Nature of the assay: Cytochrome P450 inhibition, pooled human hepatic microsome, CYP2C9. It is filed as in vitro ADME.

The target of assay [3] is T3, CYP2D6 (Homo sapiens, UniProt P10635).
T3 construct: using commercially available pooled human hepatic microsome; from tissue; host or cells: pooled human hepatic microsomes
T3 sequence (P10635 whole entry): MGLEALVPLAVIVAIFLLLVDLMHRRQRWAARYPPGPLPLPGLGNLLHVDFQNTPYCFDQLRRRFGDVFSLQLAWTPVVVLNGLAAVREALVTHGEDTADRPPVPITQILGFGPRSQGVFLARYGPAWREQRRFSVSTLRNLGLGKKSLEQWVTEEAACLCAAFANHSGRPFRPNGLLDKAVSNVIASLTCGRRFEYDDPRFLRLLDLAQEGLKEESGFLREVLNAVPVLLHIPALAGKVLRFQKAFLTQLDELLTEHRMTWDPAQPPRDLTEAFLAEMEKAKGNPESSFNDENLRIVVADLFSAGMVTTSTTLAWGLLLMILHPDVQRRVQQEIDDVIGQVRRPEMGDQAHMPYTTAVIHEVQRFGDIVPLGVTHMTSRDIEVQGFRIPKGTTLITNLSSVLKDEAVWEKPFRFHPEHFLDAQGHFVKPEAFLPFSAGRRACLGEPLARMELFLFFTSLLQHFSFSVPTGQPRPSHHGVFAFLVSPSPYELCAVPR
Briefly: Cytochrome P450 inhibition, pooled human hepatic microsome, CYP2D6 (dextromethorphan O-demethylation). The conditions noted are these: 5 μmol/L dextromethorphan, 15 min, 37° C. Type of assay: in vitro ADME.

The target in assay [4] is T4, CYP3A4 (Homo sapiens, UniProt P08684).
T4 construct: using commercially available pooled human hepatic microsome; from tissue; host or cells: pooled human hepatic microsomes
T4 sequence (P08684 whole entry): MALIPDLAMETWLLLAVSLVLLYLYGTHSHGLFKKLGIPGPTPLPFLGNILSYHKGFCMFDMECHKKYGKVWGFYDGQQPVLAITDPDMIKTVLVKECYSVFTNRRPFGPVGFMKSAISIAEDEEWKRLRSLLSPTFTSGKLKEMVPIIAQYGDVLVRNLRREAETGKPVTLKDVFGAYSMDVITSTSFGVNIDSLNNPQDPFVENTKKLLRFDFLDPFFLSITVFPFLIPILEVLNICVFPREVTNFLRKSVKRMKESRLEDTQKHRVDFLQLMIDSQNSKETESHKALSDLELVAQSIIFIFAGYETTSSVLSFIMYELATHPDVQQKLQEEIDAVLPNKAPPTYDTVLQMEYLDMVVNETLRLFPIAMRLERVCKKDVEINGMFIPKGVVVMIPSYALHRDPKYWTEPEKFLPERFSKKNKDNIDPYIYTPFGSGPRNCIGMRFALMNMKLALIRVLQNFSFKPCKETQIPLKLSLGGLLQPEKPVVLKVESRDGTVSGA
Nature of the assay: Cytochrome P450 inhibition, pooled human hepatic microsome, CYP3A4. It is filed as in vitro ADME.

Assay [5] addresses Nociceptin receptor (Homo sapiens, UniProt P41146). Nature of the assay: biochemical.
Assay [6] addresses human opioid receptor-like (ORL-1) (Homo sapiens, UniProt P41146). Nature of the assay: In vitro ORL-1 receptor [35S]GTPγS functional assay. Type of assay: biochemical. The conditions noted are these: for Emax: read-out: ORL-1 GTPγS Emax.

SMILES strings stand for the structures.

Chain of human opioid receptor-like (ORL-1) (P41146 whole entry): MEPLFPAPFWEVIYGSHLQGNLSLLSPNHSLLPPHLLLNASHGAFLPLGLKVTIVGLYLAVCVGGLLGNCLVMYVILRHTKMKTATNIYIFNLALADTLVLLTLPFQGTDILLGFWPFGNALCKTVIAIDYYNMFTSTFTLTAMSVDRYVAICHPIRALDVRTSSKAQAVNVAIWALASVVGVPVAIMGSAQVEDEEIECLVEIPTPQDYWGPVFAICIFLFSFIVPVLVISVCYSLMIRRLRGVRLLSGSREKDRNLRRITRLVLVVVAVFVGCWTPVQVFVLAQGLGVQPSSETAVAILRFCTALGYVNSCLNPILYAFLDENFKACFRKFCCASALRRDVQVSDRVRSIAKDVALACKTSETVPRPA
Chain of Nociceptin receptor (P41146 whole entry, looked up): as the sequence (P41146 whole entry) above

Turning to `CCOC(=O)c1nc2ccccc2c(=O)n1C1C[C@H]2CCC[C@@H](C1)N2C1C[C@H]2CCC[C@@H](C1)C2` (stereo partly drawn) [8 (D12b), ethyl 3-((1R,1′R,3R,3′R,5S,5′S)-9′-aza[3,9′-bi(bicyclo[3.3.1]nonan)]-3′-yl)-4-oxo-3,4-dihydroquinazoline-2-carboxylate], the IC50 in assay [1] was greater than 20 µM; in assay [2], greater than 20 µM; in assay [3], 9.7 µM; in assay [4] it was 6.5 µM. In assay [5], this molecule had a Ki of 0.252 µM.
Regarding `O=C(O)c1nc2ccccc2c(=O)n1C1C[C@H]2CCC[C@@H](C1)N2C1C[C@H]2CCC[C@@H](C1)C2` (stereo partly drawn) [9 (D2b), 3-((1R,1′R,3R,3′R,5S,5′S)-[3,9′-bi(9′-azabicyclo[3.3.1]nonan)]-3′-yl)-4-oxo-3,4-dihydroquinazoline-2-carboxylic acid], in assay [6], the EC50 was greater than 20 µM. Besides, the Emax in assay [6] was 1%. The IC50 in assay [1] was greater than 20 µM; in assay [2], greater than 20 µM; in assay [3], 2.6 µM; in assay [4], greater than 20 µM.
Regarding `O=c1[nH]c2ccccc2c(=O)n1C1C[C@H]2CCC[C@@H](C1)N2C1C[C@H]2CCC[C@@H](C1)C2` (stereo partly drawn) [12 (D1a)], the EC50 in assay [6] was greater than 20 µM. The Emax in assay [6] came to 1.33 ± 0.33%. In addition, the IC50 in assay [1] was greater than 20 µM; in assay [2] it was greater than 20 µM; in assay [3], 8.9 µM; in assay [4], greater than 20 µM.
Consider `O=C(O)Cn1c(=O)n(C2C[C@H]3CCC[C@@H](C2)N3C2C[C@H]3CCC[C@@H](C2)C3)c(=O)c2ccccc21` (stereo partly drawn) [15 (D3a), 2-(3-((1R,1′R,3r,3′R,5S,5′S)-[3,9′-bi(9′-azabicyclo[3.3.1]nonan)]-3′-yl)-2,4-dioxo-3,4-dihydroquinazolin-1(2H)-yl)acetic acid], for which the EC50 in assay [6] is greater than 20 µM. For the same molecule, the IC50 in assay [1], in assay [2], in assay [3] and in assay [4] was greater than 20 µM throughout.
With `O=C(O)CNC(=O)Cn1c(=O)n(C2C[C@H]3CCC[C@@H](C2)N3C2C[C@H]3CCC[C@@H](C2)C3)c(=O)c2ccccc21` (stereo partly drawn) [18 (D28a), 2-(2-(3-((1R,1′R,3r,3′R,5S,5′S)-[3,9′-bi(9′-azabicyclo[3.3.1]nonan)]-3′-yl)-2,4-dioxo-3,4-dihydroquinazolin-1(2H)-yl)acetamido)acetic acid], the EC50 in assay [6] was greater than 20 µM. Moreover, in assay [6], the Emax amounted to 1%. Moreover, the IC50 in assay [1] is greater than 20 µM; in assay [2], greater than 20 µM; in assay [3], 1.6 µM; in assay [4], greater than 20 µM.
For the molecule `O=C(O)Cn1c(=O)n(C2C[C@H]3CCC[C@@H](C2)N3C2C[C@H]3CCCC[C@@H](C2)C3)c(=O)c2ccccc21` (stereo partly drawn) [21 (J3a), 2-(3-((1R,3R,5S)-9-((1R,6S,8r)-bicyclo[4.3.1]decan-8-yl)-9-azabicyclo[3.3.1]nonan-3-yl)-2,4-dioxo-3,4-dihydroquinazolin-1(2H)-yl)acetic acid], the EC50 in assay [6] is greater than 20 µM. In addition, the IC50 in assay [1] was 5.5 µM; in assay [2] it was greater than 20 µM; in assay [3], greater than 20 µM; in assay [4] it was 2.3 µM.
As to `CCC1C[C@@H]2CC(N3[C@@H]4CCC[C@H]3CC(n3c(=O)c5ccccc5n(CC(=O)O)c3=O)C4)C[C@H](C1)C2` (stereo partly drawn) [24 (D459a), 2-(3-((1R,1′R,3r,3′R,5S,5′S)-7-ethyl-[3,9′-bi(9′-azabicyclo[3.3.1]nonan)]-3′-yl)-2,4-dioxo-3,4-dihydroquinazolin-1(2H)-yl)acetic acid], in assay [6], the concentration giving a half-maximal response (EC50) is greater than 20 µM. Besides, the IC50 in assay [1] is greater than 20 µM; in assay [2], greater than 20 µM; in assay [3], 18.7 µM; in assay [4], 5.8 µM. Moreover, the Ki in assay [5] worked out at 0.229 µM.
